Residues, ends and D or L forms follow the SMILES beside them.

The first experiment concerns the target T1, ΔCTD_Reg1 (amino acids 1 to 546 of human Regnase-1) phosphorylation by TBK1 (Homo sapiens, UniProt Q5D1E8).
T1 construct: made in house; host or cells: Expi293 cells
T1 sequence (Q5D1E8 1-546): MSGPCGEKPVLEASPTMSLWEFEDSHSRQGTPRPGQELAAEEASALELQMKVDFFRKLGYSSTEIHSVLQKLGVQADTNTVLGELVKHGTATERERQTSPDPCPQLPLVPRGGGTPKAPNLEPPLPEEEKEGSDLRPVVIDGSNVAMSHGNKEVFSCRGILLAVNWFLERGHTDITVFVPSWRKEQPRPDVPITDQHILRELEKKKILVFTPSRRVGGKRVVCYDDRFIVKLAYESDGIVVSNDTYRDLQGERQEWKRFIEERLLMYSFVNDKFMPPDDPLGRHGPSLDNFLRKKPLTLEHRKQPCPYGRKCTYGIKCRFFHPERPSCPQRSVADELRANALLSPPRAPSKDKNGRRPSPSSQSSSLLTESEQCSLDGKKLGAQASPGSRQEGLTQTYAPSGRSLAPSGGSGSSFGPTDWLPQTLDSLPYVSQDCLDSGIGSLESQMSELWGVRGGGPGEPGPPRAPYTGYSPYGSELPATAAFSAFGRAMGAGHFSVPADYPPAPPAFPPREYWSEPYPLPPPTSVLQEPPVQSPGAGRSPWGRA
Briefly: Regnase-1 phosphorylation inhibition by compounds (AlphaScreen), TBK1, CTD-deficient Regnase-1. Type of experiment: biochemical. The conditions noted are these: Table 11; 2 nM Regnase-1; AlphaScreen; read-out: 50% inhibition concentration, Regnase-1 phosphorylation, ΔCTD_Reg1, TBK1. From the text: The full-length sequence of human Regnase-1 (UniProt ID: Q5D1E8) was used to prepare a construct having a FLAG tag on the N-terminal side and a recognition sequence for biotin ligase BirA on the C-terminal side (FL_Reg1) as a target protein. The above-mentioned Regnase-1 was expressed in mammalian Expi293 cells, purified with FLAG M2 agarose, and isolated by gel filtration chromatography. When biotinylation was required, methods from nonpatent documents (BMC biotechnology, 2008,8,41; and Protein Science, 1999,8,921-929) were used.
(§1) Among the full-length human Regnase-1 sequence, the 1st to 546th amino acid sequence was prepared and made into a construct having a FLAG tag on the N-terminal side and a biotin ligase BirA recognition sequence on the C-terminal side (herein, a Regnase-1 lacking the C-terminal domain of Regnase-1 (amino acids 547 to 599 in the case of SEQ ID NO: 2) is referred to as “ΔCTD_Reg1”. “ΔCTD_Reg1” is different from “Regnase-1ΔCTD”, which is a C-terminal domain deletion variant resulting from a frameshift mutation caused by a 1 bp deletion at codon 517, as prepared in Example 13). In addition, the sequence from amino acids 301 to 599 of the full-length human Regnase-1 sequence was designated as C-terminal Regnase-1, and a construct having a FLAG tag on the N-terminal side and a recognition sequence for biotin ligase BirA on the C-terminal side was prepared (Reg1_301-599). The above-mentioned Regnase-1 was expressed in mammalian Expi293 cells, purified with FLAG M2 agarose, and isolated by gel filtration chromatography. When biotinylation was required, methods of nonpatent documents (BMC biotechnology, 2008,8,41; and Protein Science, 1999,8,921-929) were used.
(§2) Using Kinase assay buffer III (manufactured by SignalChem) supplemented with 2 mM DTT, 100 μM sodium vanadate, and 2 mM manganese chloride, kinase (IKKβ (manufactured by SignalChem) or TBK1 (manufactured by SignalChem)) and Regnase-1 were reacted in the presence of 10 μM ATP at room temperature for 2 hours to perform a phosphorylation reaction.
(§3) Phosphorylated Regnase-1 was detected by the AlphaScreen system. After each of the above-mentioned phosphorylated Regnase-1 antibodies was added and reacted at room temperature for one hour, anti-FLAG AlphaLISA Acceptor Beads (manufactured by PerkinElmer) and Protein A AlphaScreen Donor Beads (manufactured by PerkinElmer) were added, and EnVision (manufactured by PerkinElmer) was used to measure the excited luminescence. As a result, phosphorylated Regnase-1 produced by the phosphorylation reaction by kinase was specifically detected, and signals were confirmed to be enhanced in a manner dependent on Regnase-1 and kinase concentrations (FIG. 24).
(§4) After mixing 2 nM of the above-mentioned Regnase-1 and the compound, phosphorylated Regnase-1 produced by the phosphorylation reaction was detected by the AlphaScreen system. As the results, the inhibition rate was calculated from the signals obtained when adding the compound at each concentration, by defining the signal obtained with Regnase-1 alone to be 100% inhibition rate, and the signal obtained when the same amount of solvent (DMSO) is added in place of the compound as 0% inhibition rate. The 50% inhibition concentration (μM) was calculated from the obtained dose response curve (Table 11).
(In general: Bead proximity is the source of the signal in Alpha formats.)
As to `CC[C@H](C)[C@@H]1NC(=O)[C@H](CC(N)=O)NC(=O)[C@H](Cc2ccc(O)cc2)NC(=O)[C@H](Cc2c[nH]c3ccccc23)NC(=O)[C@H](CO)NC(=O)[C@H](CC(N)=O)NC(=O)[C@H](C)NC(=O)[C@H](Cc2ccc(O)cc2)NC(=O)CNC(=O)[C@H](C)N(C)C(=O)C[C@@H](C(=O)N2CCCC2)NC(=O)[C@H](Cc2c[nH]c3ccccc23)NC1=O` [PP2] (HELM PEPTIDE1{[meA].G.Y.A.N.S.W.Y.N.I.W.D.[C1CCN([*:1])C1]}$PEPTIDE1,PEPTIDE1,1:R1-12:R3$$$V2.0), the IC50 amounted to 17.6 µM.
Regarding `CC[C@H](C)[C@@H]1NC(=O)[C@H](CCCNC(=N)N)NC(=O)[C@H](Cc2ccc(O)cc2)NC(=O)[C@H](Cc2c[nH]c3ccccc23)NC(=O)[C@H](C)NC(=O)[C@H](CO)NC(=O)[C@H](C)NC(=O)[C@H](Cc2c[nH]cn2)NC(=O)[C@H](CCCCN)NC(=O)[C@@H](C)N(C)C(=O)C[C@@H](C(=O)N2CCCC2)NC(=O)[C@H](Cc2c[nH]c3ccccc23)NC1=O` [PP3] (HELM PEPTIDE1{[C[C@H](C(=O)[*:2])N(C)[*:1]].K.H.A.S.A.W.Y.R.I.W.D.[C1CCN([*:1])C1]}$PEPTIDE1,PEPTIDE1,1:R1-12:R3$$$V2.0), the IC50 turned out to be 5.7 µM.
Same read-out and setting: with `CC[C@H](C)[C@@H]1NC(=O)[C@H](Cc2ccc(O)cc2)NC(=O)[C@H](C)N(C)C(=O)C[C@@H](C(=O)N2CCCC2)NC(=O)[C@H](CC(C)C)NC(=O)[C@H](CC(=O)O)NC(=O)CNC(=O)[C@H](Cc2ccccc2)NC(=O)[C@H](Cc2ccccc2)NC(=O)[C@H](CC(=O)O)NC(=O)[C@H](Cc2c[nH]c3ccccc23)NC1=O` [PP4] (HELM PEPTIDE1{[meA].Y.I.W.D.F.F.G.D.L.D.[C1CCN([*:1])C1]}$PEPTIDE1,PEPTIDE1,1:R1-11:R3$$$V2.0) the figure was 44.9 µM.
Same read-out and setting: next, `CC[C@H](C)[C@@H]1NC(=O)[C@H](CCCCN)NC(=O)[C@H](Cc2ccccc2)NC(=O)[C@H](Cc2c[nH]c3ccccc23)NC(=O)[C@H](CO)NC(=O)[C@H](CO)NC(=O)[C@H](CC(N)=O)NC(=O)[C@@H]2CCCN2C(=O)[C@@H](C)N(C)C(=O)C[C@@H](C(=O)N2CCCC2)NC(=O)[C@H](Cc2c[nH]c3ccccc23)NC1=O` [PP6] (HELM PEPTIDE1{[C[C@H](C(=O)[*:2])N(C)[*:1]].P.N.S.S.W.F.K.I.W.D.[C1CCN([*:1])C1]}$PEPTIDE1,PEPTIDE1,1:R1-11:R3$$$V2.0): 14.5 µM; `CC[C@H](C)[C@@H]1NC(=O)[C@H](CC(N)=O)NC(=O)[C@H](Cc2ccc(O)cc2)NC(=O)[C@H](Cc2c[nH]c3ccccc23)NC(=O)[C@H](C)NC(=O)[C@H](CC(N)=O)NC(=O)[C@H](CO)NC(=O)[C@H](Cc2c[nH]cn2)NC(=O)[C@H](C)N(C)C(=O)C[C@@H](C(=O)N2CCCC2)NC(=O)[C@H](Cc2c[nH]c3ccccc23)NC1=O` [PP5] (HELM PEPTIDE1{[meA].H.S.N.A.W.Y.N.I.W.D.[C1CCN([*:1])C1]}$PEPTIDE1,PEPTIDE1,1:R1-11:R3$$$V2.0): 19.1 µM.

For the next experiment, the target named is T2, Reg1_301-599 (amino acids 301-599 of human Regnase-1) phosphorylation by TBK1 (Homo sapiens, UniProt Q5D1E8).
T2 construct: made in house; host or cells: Expi293 cells
T2 sequence (Q5D1E8 301-599): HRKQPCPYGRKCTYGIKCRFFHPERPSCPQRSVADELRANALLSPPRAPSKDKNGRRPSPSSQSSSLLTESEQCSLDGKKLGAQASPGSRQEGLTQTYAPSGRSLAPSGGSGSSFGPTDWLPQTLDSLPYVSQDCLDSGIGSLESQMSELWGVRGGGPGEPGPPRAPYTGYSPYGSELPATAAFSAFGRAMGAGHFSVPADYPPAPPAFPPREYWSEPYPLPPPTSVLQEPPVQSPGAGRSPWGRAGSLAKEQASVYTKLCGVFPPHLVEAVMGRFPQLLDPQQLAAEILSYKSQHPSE
Briefly: Regnase-1 phosphorylation inhibition by compounds (AlphaScreen), TBK1, C-terminal Regnase-1. Type of experiment: biochemical. The conditions noted are these: Table 13, read-out: Phosphorylation inhibition Reg1_301-599, 50% inhibition concentration (TBK1). The protocol: as §1, §2, §3, §4
With `CC[C@H](C)[C@@H]1NC(=O)[C@H](CCCNC(=N)N)NC(=O)[C@H](Cc2ccc(O)cc2)NC(=O)[C@H](Cc2c[nH]c3ccccc23)NC(=O)[C@H](C)NC(=O)[C@H](CO)NC(=O)[C@H](C)NC(=O)[C@H](Cc2c[nH]cn2)NC(=O)[C@H](CCCCN)NC(=O)[C@@H](C)N(C)C(=O)C[C@@H](C(=O)N2CCCC2)NC(=O)[C@H](Cc2c[nH]c3ccccc23)NC1=O` [PP3] (HELM PEPTIDE1{[C[C@H](C(=O)[*:2])N(C)[*:1]].K.H.A.S.A.W.Y.R.I.W.D.[C1CCN([*:1])C1]}$PEPTIDE1,PEPTIDE1,1:R1-12:R3$$$V2.0), the IC50 came out at 7.1 µM.

The values above are taken from patent publication US20250018014A1, “METHOD FOR TREATING AND/OR PREVENTING REGNASE-1-RELATED DISEASE” (OSAKA UNIVERSITY, priority 2018, published 2025).
